*1 amine or outer side, *2 acyl side, *3 side chain or, on linkers, in order; H or OH if unused. Where a SMILES comes first, the peptide text is derived from it. Bridges are numbered along the chain shown (N, C = ends). X1 = O=C([C@@H]1C[C@H](C=CCO[*:3])C[C@@H]1C=CCO[*:1])[*:2]
Tests used:
[1] = target: T1, MYC (Homo sapiens, UniProt P01106); assay: Cellular thermal shift assay (CETSA) with U87 cell lysate; type: binding; details: U87 cell lysate 1.481 mg/mL, 195 μL lysate + 19.5 μL peptide (1 mM in PBS); 50 to 65 °C for 3 min; Western blot; versus control
T1 construct: made in house; host or cells: E. coli BL21(DE3)
T1 sequence (P01106 16-454): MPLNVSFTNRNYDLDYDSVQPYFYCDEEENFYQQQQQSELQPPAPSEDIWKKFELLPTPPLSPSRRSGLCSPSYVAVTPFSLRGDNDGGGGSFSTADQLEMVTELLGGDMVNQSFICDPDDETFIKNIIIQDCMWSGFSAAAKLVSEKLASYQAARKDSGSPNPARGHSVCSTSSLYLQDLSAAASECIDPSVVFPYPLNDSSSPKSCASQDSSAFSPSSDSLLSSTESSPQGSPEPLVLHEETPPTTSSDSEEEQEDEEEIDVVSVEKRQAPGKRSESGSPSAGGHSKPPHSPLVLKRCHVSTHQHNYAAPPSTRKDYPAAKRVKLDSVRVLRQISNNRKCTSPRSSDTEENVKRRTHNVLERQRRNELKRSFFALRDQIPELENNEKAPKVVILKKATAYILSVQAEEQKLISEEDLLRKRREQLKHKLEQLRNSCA
Procedure: To validate that NT-B2R could bind to MYC in complex biological environments, we performed cellular thermal shift assays using U87 cell lysates[34] (Figure 4A). U87 is a human glioblastoma cell line with known dependence on MYC activities.[35]−[37]
(§1) Liposome loading capacity quantification
(§2) 200 μL of the liposome solution (4 mg/mL) was dried under vacuum and extracted with 50 μL of DMSO. The obtained solution was analyzed on a reverse-phase HPLC and the corresponding peptide peak was identified by mass spectrometry. The peptide concentration was then determined by comparing the peak area to that of a standard solution. The loading capacities were calculated accordingly.
Cells were seeded in a 96-well plate at 4 k/well and incubated overnight. Afterward, the cells were washed with complete media and treated with varying concentrations of peptide-loaded liposome or empty liposome. The final media volume was 200 μL in each well. […] The 96-well plate was shaken for 15 min on an orbital mixer in dark, and the fluorescence (540 nm excitation, 590 nm emission) intensities were read by a […]
(§3) U87 cells were detached by trypsin and resuspended in 5 mL of PBS(1x). […] The protein concentrations were determined by BCA assay.
(§4) To prepare the sample for the cellular thermal shift assay, the quantified cell lysate was adjusted to a final concentration of 1.481 mg/mL with lysis buffer. […]

[2] = system: U87 cells; assay: Cell viability test (resazurin), U87; type: cell-based, human; details: peptide-loaded DOTAP/DOPE liposomes vs empty liposomes, 48 hours, resazurin fluorescence
Procedure: as §1, §2
Cells were seeded in a 96-well plate at 4 k/well and incubated overnight. Afterward, the cells were washed with complete media and treated with varying concentrations of peptide-loaded liposome or empty liposome. The final media volume was 200 μL in each well. The cells were treated for 48 hours and then washed with fresh media to remove residue peptides or liposomes. For a single well, Resazurin (10 μg/mL in PBS) mixed with 200 μL of fresh cell media was added, and the plate was incubated at 37 °C for 3 hours. The 96-well plate was shaken for 15 min on an orbital mixer in dark, and the fluorescence (540 nm excitation, 590 nm emission) intensities were read by a […]
as §3, §4

## CC(C)C[C@@H]1NC(=O)[C@H](CCCNC(=N)N)NC(=O)[C@@H]2CCCCNC(=O)[C@@H]3C[C@H](C=CCOC(=O)CC[C@@H](C(N)=O)NC1=O)C[C@@H]3C=CCOC(=O)CC[C@H](N)C(=O)N[C@@H](Cc1c[nH]c3ccccc13)C(=O)N1CCC[C@H]1C(=O)N[C@@H](Cc1c[nH]cn1)C(=O)N[C@@H](CCCNC(=N)N)C(=O)N2 [NT-B2R] (H-EWPHRKRLE-NH2; linker 1-6-9 via X1; N-terminus and C-terminus assumed)
[1]
  increase of MYC melting temperature, CETSA: ~2 °
[2]
  metabolic activity and proliferation (viability), U87: decreased metabolic activity and proliferation
